This passage reports T/C results from PubChem BioAssay AID264 (DTP/NCI, 2004).

The subject of this assay is nude mice, LX-1 lung xenograft intrarenal, tumor weight T/C. The assay can be described thus: NCI In Vivo Anticancer Drug Screen. Data for tumor model Human Lung LX-1 Xenograft (intrarenal inoculation) in NU/NU Swiss (nude) mice. To be noted: endpoint: mean tumor weight change, higher = larger tumour. An outline of the steps: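 In vivo, transplantable tumor; compound vs vehicle arms; tumor size measured; value = T/C.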

Setting [1] is: dose: 1200.0 mg/kg/injection, schedule: Q04DX003 (sc), vehicle: suspension in saline.
Where [2] appears, read: dose: 300.0 mg/kg/injection, schedule: Q04DX003 (sc), vehicle: saline.
The mark [3] stands for this setting: dose: 100.0 mg/kg/injection, schedule: Q01DX010 (sc), vehicle: saline.
Where [4] appears, read: dose: 300.0 mg/kg/injection, schedule: Q04DX003 (sc), vehicle: Klucel (hydroxypropylcellulose) (HPC).
Where [5] appears, read: dose: 600.0 mg/kg/injection, schedule: Q04DX003 (sc), vehicle: Klucel (hydroxypropylcellulose) (HPC).
Where [6] appears, read: dose: 1200.0 mg/kg/injection, schedule: Q04DX003 (sc), vehicle: Klucel (hydroxypropylcellulose) (HPC).
[7] abbreviates: dose: 1.0 mg/kg/injection, schedule: Q01DX010 (sc), vehicle: saline.
The mark [8] stands for this setting: dose: 2.0 mg/kg/injection, schedule: Q01DX010 (sc), vehicle: saline.
The mark [9] stands for this setting: dose: 12.5 mg/kg/injection, schedule: Q01DX010 (sc), vehicle: saline.
Where [10] appears, read: dose: 25.0 mg/kg/injection, schedule: Q01DX010 (sc), vehicle: saline.
[11] abbreviates: dose: 6.0 mg/kg/injection, schedule: Q04DX003 (sc), vehicle: Klucel (hydroxypropylcellulose) (HPC).
[12] abbreviates: dose: 12.0 mg/kg/injection, schedule: Q04DX003 (sc), vehicle: Klucel (hydroxypropylcellulose) (HPC).
[13] abbreviates: dose: 48.0 mg/kg/injection, schedule: Q04DX003 (sc), vehicle: Klucel (hydroxypropylcellulose) (HPC).
Where [14] appears, read: dose: 24.0 mg/kg/injection, schedule: Q04DX003 (sc), vehicle: Klucel (hydroxypropylcellulose) (HPC).

The structures appear in SMILES notation. “And” between values parts separate entries of the source, which are not always exact repeats. Identical values can stand only once. Inconclusive results are not listed.

As to `O=C1NC(O)c2ccccc2O1` (stereo not given), the T/C reads like this: (dose: 300.0 mg/kg/injection, schedule: Q04DX003 (sc), vehicle: suspension in saline) 102 % of control; (dose: 600.0 mg/kg/injection, schedule: Q04DX003 (sc), vehicle: suspension in saline) 79 % of control; under setting [1], 63 % of control; (dose: 2400.0 mg/kg/injection, schedule: Q04DX003 (sc), vehicle: suspension in saline) 86 % of control.
As to `C1CNCOC1`, under setting [2], the T/C was 90 % of control.
As for `COc1ccc(OC)c(Cc2cnc3nc(N)nc(N)c3c2C)c1`, the T/C is 82 % of control (dose: 75.0 mg/kg/injection, schedule: Q04DX003 (sc), vehicle: water); 80 % of control (dose: 150.0 mg/kg/injection, schedule: Q04DX003 (sc), vehicle: water); 94 % of control (dose: 300.0 mg/kg/injection, schedule: Q04DX003 (sc), vehicle: water); 94 % of control (dose: 600.0 mg/kg/injection, schedule: Q04DX003 (sc), vehicle: water).
Take `CCCC(=O)Nc1ncnc2c1ncn2C1OC2COP(=O)(O)OC2C1OC(=O)CCC` (stereo not given): the T/C reads like this: under setting [3], 122 % of control; (dose: 200.0 mg/kg/injection, schedule: Q01DX010 (sc), vehicle: saline) 92 % of control; (dose: 400.0 mg/kg/injection, schedule: Q01DX010 (sc), vehicle: saline) 81 % of control.
In the case of `CCCCCCCCCCCCCCCCP(=O)(OCCOCCCCCC)OCCOCCCCCC`, the T/C reads like this: (dose: 75.0 mg/kg/injection, schedule: Q04DX003 (sc), vehicle: saline) 114 % of control; (dose: 150.0 mg/kg/injection, schedule: Q04DX003 (sc), vehicle: saline) 91 % of control; under setting [2], 92 % of control.
`COc1cc(C(=O)c2cocc2C(=O)c2ccc3c(c2)OCO3)cc(OC)c1OC`: the T/C is, setting by setting: under setting [4], 160 % of control; under setting [5], 80 % of control; under setting [6], 94 % of control.
In the case of `C[N+](C)(C)c1ncnc2c1ncn2C1CCCO1` (stereo not given), the T/C (dose: 0.25 mg/kg/injection, schedule: Q01DX010 (sc), vehicle: saline) was 65 % of control; the T/C under setting [7] was 106 % of control; the T/C under setting [8] is 94 % of control; the T/C under setting [9] is 176 % of control; the T/C under setting [10] is 120 % of control.
Regarding `CCN1/C(=C/C(C)=C/c2sc3ccc4ccccc4c3[n+]2CC)Sc2ccc3ccccc3c21`, the T/C was 67 % of control (dose: 0.75 mg/kg/injection, schedule: Q04DX003 (sc), vehicle: Klucel (hydroxypropylcellulose) (HPC)); 112 % of control (dose: 1.5 mg/kg/injection, schedule: Q04DX003 (sc), vehicle: Klucel (hydroxypropylcellulose) (HPC)); 76 % of control (dose: 3.0 mg/kg/injection, schedule: Q04DX003 (sc), vehicle: Klucel (hydroxypropylcellulose) (HPC)); 96 % of control under setting [11]; 112 % of control under setting [12]; 81 % of control and 92 % of control under setting [13].
Consider `CN(C)CC(Cl)CCl` (stereo not given), for which the T/C under setting [2] was 49 % of control.
On to `CC(C)(C)C1CCCCC1`, for which the T/C was 94 % of control under setting [4]; 68 % of control under setting [5]; 59 % of control under setting [6]; 46 % of control (dose: 2400.0 mg/kg/injection, schedule: Q04DX003 (sc), vehicle: Klucel (hydroxypropylcellulose) (HPC)).
For `C1OCN2CSCC12` (stereo not given), the T/C reads like this: (dose: 50.0 mg/kg/injection, schedule: Q04DX003 (sc), vehicle: saline with Tween-80) 76 % of control; (dose: 100.0 mg/kg/injection, schedule: Q04DX003 (sc), vehicle: saline with Tween-80) 103 % of control; (dose: 200.0 mg/kg/injection, schedule: Q04DX003 (sc), vehicle: saline with Tween-80) 71 % of control; (dose: 400.0 mg/kg/injection, schedule: Q04DX003 (sc), vehicle: saline with Tween-80) 63 % of control.
On to `OC(C1CO1)C(O)C1CO1` (stereo not given), for which the T/C runs as follows: under setting [7], 73 % of control; under setting [8], 66 % of control.
Consider `Brc1c(NC2=NCCN2)ccc2nccnc12`, for which the T/C (dose: 25.0 mg/kg/injection, schedule: Q04DX003 (sc), vehicle: saline) is 75 % of control; the T/C (dose: 50.0 mg/kg/injection, schedule: Q04DX003 (sc), vehicle: saline) was 55 % of control; the T/C (dose: 100.0 mg/kg/injection, schedule: Q04DX003 (sc), vehicle: saline) was 79 % of control; the T/C (dose: 200.0 mg/kg/injection, schedule: Q04DX003 (sc), vehicle: saline) is 69 % of control.
As for `O=C(O)c1ccc(C(=O)O)c(C(=O)O)c1.[NH-]C1CCCCC1[NH-].[Pt+2]`, the T/C (dose: 3.12 mg/kg/injection, schedule: Q01DX010 (sc), vehicle: sodium bicarbonate) is 101 % of control and the T/C (dose: 6.25 mg/kg/injection, schedule: Q01DX010 (sc), vehicle: sodium bicarbonate) was 74 % of control.
Consider `CCC1CC2CN(CCc3c([nH]c4ccccc34)C(C(=O)OC)(c3cc4c(cc3OC)N(C)C3C(O)(C(=O)OC)C(OC(C)=O)C5(CC)C=CCN6CCC43C65)C2)C1` (stereo not given), for which the T/C is 63 % of control and 64 % of control (dose: 4.0 mg/kg/injection, schedule: Q04DX003 (sc), vehicle: saline); 31 % of control and 33 % of control (dose: 4.0 mg/kg/injection, schedule: Q04DX003 (sc), vehicle: suspension in saline); 6 % of control and 12 % of control (dose: 16.0 mg/kg/injection, schedule: Q04DX003 (sc), vehicle: saline).
In the case of `C=C(C(=O)O)C(N)C(=O)O` (stereo not given), the T/C under setting [1] was 76 % of control.
With `O=NN(CCCl)C(=O)NCCO`, under “dose: 3.12 mg/kg/injection, schedule: Q04DX003 (sc), vehicle: water”, the T/C is 49 % of control and 65 % of control.
As to `O=C(CO)c1ccc([N+](=O)[O-])cc1`, the T/C (dose: 50.0 mg/kg/injection, schedule: Q01DX010 (sc), vehicle: saline with Tween-80) is 78 % of control; the T/C (dose: 100.0 mg/kg/injection, schedule: Q01DX010 (sc), vehicle: saline with Tween-80) is 86 % of control; the T/C (dose: 200.0 mg/kg/injection, schedule: Q01DX010 (sc), vehicle: saline with Tween-80) was 103 % of control; the T/C (dose: 400.0 mg/kg/injection, schedule: Q01DX010 (sc), vehicle: saline with Tween-80) is 70 % of control.
Take `CSc1ncnc2c1ncn2C1OC(CO)C(O)C1O` (stereo not given): the T/C (dose: 75.0 mg/kg/injection, schedule: Q04DX003 (sc), vehicle: saline + alcohol) was 166 % of control and the T/C (dose: 150.0 mg/kg/injection, schedule: Q04DX003 (sc), vehicle: saline + alcohol) is 22 % of control.
`COc1cc2cc[n+](C)c(Cc3ccccc3)c2cc1OC`: the T/C runs as follows: (dose: 37.5 mg/kg/injection, schedule: Q04DX003 (sc), vehicle: Klucel (hydroxypropylcellulose) (HPC)) 88 % of control; (dose: 75.0 mg/kg/injection, schedule: Q04DX003 (sc), vehicle: Klucel (hydroxypropylcellulose) (HPC)) 115 % of control.
Turning to `CCC[CH2][Sn]1([CH2]CCC)[O]C2C(CO)OC(n3ccc(N)nc3=O)C2[O]1` (stereo not given), the T/C is, setting by setting: under setting [12], 82 % of control; under setting [14], 66 % of control; under setting [13], 115 % of control.
Turning to `C=CC(=O)NCNC(=O)C=C`, the T/C is 88 % of control under setting [10]; 103 % of control (dose: 50.0 mg/kg/injection, schedule: Q01DX010 (sc), vehicle: saline); 64 % of control under setting [3].
On to `O=C(O)C1CSCN1` (stereo not given), for which the T/C is 86 % of control (dose: 50.0 mg/kg/injection, schedule: Q01DX010 (sc), vehicle: water) and 68 % of control (dose: 100.0 mg/kg/injection, schedule: Q01DX010 (sc), vehicle: water).
On to `N=[N+]=CC(=O)OCC(N)C(=O)O` (stereo not given), for which, under setting [9], the T/C was 101 % of control.
Turning to `C[N+](C)(C)c1cc2c(nn1)Nc1ccccc1S2`, for the setting “dose: 100.0 mg/kg/injection, schedule: Q01DX010 (sc), vehicle: Klucel (hydroxypropylcellulose) (HPC)”, the T/C was 89 % of control.
Turning to `N=C(N)CCCCCCCCC(=N)N`, the T/C by setting is: (dose: 4.69 mg/kg/injection, schedule: Q04DX003 (sc), vehicle: saline) 91 % of control; (dose: 9.38 mg/kg/injection, schedule: Q04DX003 (sc), vehicle: saline) 92 % of control; (dose: 18.75 mg/kg/injection, schedule: Q04DX003 (sc), vehicle: saline) 94 % of control.
Turning to `CC1CC(C)CC(C)C(O)/C(C#N)=C/C=C/CC(C2CCCC2C(=O)O)OC(=O)CC(O)C(C)C1` (stereo not given), the T/C under setting [11] was 117 % of control, the T/C under setting [12] was 58 % of control and the T/C under setting [14] was 48 % of control.
